Measured values as given in US20060069132A1, “Azolecarboxamide herbicides” (priority 2004, published 2006).

Experiments:
[1] = tested on: giant foxtail; experiment: Test A pre-/postemergence herbicide test; type: in vivo, Setaria faberi
In short: (§1)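 Pre: seeded sandy loam, directed soil spray, compound in non-phytotoxic solvent + surfactant. Post: 1–2-leaf plants (2–10 cm), sprayed to runoff. Greenhouse ~10 d; visual injury vs untreated, 0–100 scale.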

[2] = tested on: pigweed; experiment: Test B pre-/postemergence herbicide test; type: in vivo, Amaranthus retroflexus; conditions: for Pigweed plant response rating: postemergence
In short: (§2)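 Formulation: non-phytotoxic solvent mix with surfactant. Timing: preemergence on seed and postemergence on 2–18 cm plants, applied concurrently. Readout after 13–15 d greenhouse: visual 0–100 control rating against controls.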

[3] = tested on: wild oat; experiment: Test B postemergence herbicide test; type: in vivo, Avena fatua; conditions: postemergence
In short: (§3)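 Postemergence plants were sprayed with formulated test chemicals at 2 to 18 cm height (1- to 4-leaf stage); paddy species were grown to the 2-leaf stage. After 13 to 15 days in a greenhouse, injury was rated visually against untreated controls on a 0–100 scale (0 = no effect, 100 = complete control).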

[4] = tested on: cocklebur; experiment: Test B pre-/postemergence herbicide test; type: in vivo, Xanthium strumarium; conditions: for Cocklebur plant response rating: postemergence
In short: (§4)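 Test chemicals in a non-phytotoxic solvent mixture with surfactant were applied preemergence to seeded species and postemergence to plants 2-18 cm tall (1- to 4-leaf stage); rice and barnyardgrass were also tested in a flooded paddy at the 2-leaf stage. Visual rating versus controls after 13-15 days in greenhouse, scale 0 (no effect) to 100 (complete control).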

[5] = tested on: small flower umbrella sedge; experiment: Test B flooded paddy test; type: in vivo, Cyperus difformis; conditions: 1000 g ai/ha, scale 0 to 100 (0 no effect, 100 complete control)
In short: (§5)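 Paddy species grown to the 2-leaf stage under flooding; blackgrass sprayed postemergence at 2–18 cm (1- to 4-leaf stage). Plants kept in a greenhouse for 13 to 15 days, then visually rated against controls on 0 (no effect) to 100 (complete control).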

[6] = tested on: giant foxtail; experiment: Test B pre-/postemergence herbicide test; type: in vivo, Setaria faberi; conditions: for Foxtail, Giant plant response rating: postemergence
In short: as §2

[7] = tested on: barnyardgrass; experiment: Test B pre-/postemergence herbicide test; type: in vivo, Echinochloa crus-galli; conditions: for Barnyardgrass plant response rating: postemergence
In short: as §4

[8] = tested on: rice; experiment: Test B pre-/postemergence herbicide test; type: in vivo, Oryza sativa; conditions: 0 = no effect, 100 = complete control, preemergence
In short: as §2

[9] = tested on: large crabgrass; experiment: Test A pre-/postemergence herbicide test; type: in vivo, Digitaria sanguinalis
In short: as §1

[10] = tested on: blackgrass; experiment: Test B postemergence herbicide test; type: in vivo, Alopecurus myosuroides; conditions: postemergence
In short: as §5

[11] = tested on: velvetleaf; experiment: Test A pre-/postemergence herbicide test; type: in vivo, Abutilon theophrasti
In short: as §1

[12] = tested on: morningglory; experiment: Test A pre-/postemergence herbicide test; type: in vivo, Ipomoea spp.
In short: as §1

[13] = tested on: rice; experiment: Test B flooded paddy test; type: in vivo, Oryza sativa; conditions: 1000 g ai/ha, scale 0 to 100 (0 no effect, 100 complete control)
In short: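 Scale 0–100: zero equals no visible effect, 100 complete control, judged by eye relative to controls. Timing: 13 to 15 days in greenhouse post-treatment. Growth stage at spraying: two leaves (paddy) or one to four leaves, 2–18 cm (postemergence).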

[14] = tested on: corn; experiment: Test B pre-/postemergence herbicide test; type: in vivo, Zea mays; conditions: for Corn plant response rating: postemergence
In short: as §2

[15] = tested on: Surinam grass; experiment: Test B pre-/postemergence herbicide test; type: in vivo, Urochloa decumbens; conditions: for Surinam Grass plant response rating: postemergence
In short: as §2

[16] = tested on: barnyardgrass; experiment: Test A pre-/postemergence herbicide test; type: in vivo, Echinochloa crus-galli
In short: as §1

[17] = tested on: velvetleaf; experiment: Test B pre-/postemergence herbicide test; type: in vivo, Abutilon theophrasti; conditions: for Velvetleaf plant response rating: postemergence
In short: as §2

[18] = tested on: redroot pigweed; experiment: Test A pre-/postemergence herbicide test; type: in vivo, Amaranthus retroflexus
In short: as §1

[19] = tested on: barnyardgrass; experiment: Test B flooded paddy test; type: in vivo, Echinochloa crus-galli; conditions: 1000 g ai/ha, scale 0 to 100 (0 no effect, 100 complete control)
In short: as §5

[20] = tested on: large crabgrass; experiment: Test B pre-/postemergence herbicide test; type: in vivo, Digitaria sanguinalis; conditions: for Crabgrass, Large plant response rating: postemergence
In short: as §2

[21] = tested on: lambsquarters; experiment: Test B pre-/postemergence herbicide test; type: in vivo, Chenopodium album; conditions: for Lambsquarters plant response rating: postemergence
In short: as §2

[22] = tested on: morningglory; experiment: Test B pre-/postemergence herbicide test; type: in vivo, Ipomoea coccinea; conditions: for Morningglory plant response rating: postemergence
In short: as §4

[23] = tested on: ducksalad; experiment: Test B flooded paddy test; type: in vivo, Heteranthera limosa; conditions: 1000 g ai/ha, scale 0 to 100 (0 no effect, 100 complete control)
In short: as §5

[24] = tested on: wheat; experiment: Test B postemergence herbicide test; type: in vivo, Triticum aestivum; set-up: key to Wheat plant response rating: 0 = no effect, 100 = complete control; conditions: postemergence
In short: as §3

[25] = Postemergence, 500 g ai/ha, 0 to 100 scale, 0 no effect, 100 complete control
[26] = Postemergence, 2000 g ai/ha, 0 to 100 scale, 0 no effect, 100 complete control
[27] = Preemergence, 2000 g ai/ha, visual rating, 0 to 100 scale (0 no effect, 100 complete control)
[28] = preemergence, 500 g ai/ha, visual injury, 0 to 100 scale (0 no effect, 100 complete control)
[29] = 125 g ai/ha, 0 = no effect, 100 = complete control, preemergence
[30] = 500 g ai/ha, visual rating, 0 = no effect, 100 = complete control, preemergence
[31] = 125 g ai/ha, visual rating, scale 0 (no effect) to 100 (complete control)
[32] = 500 g ai/ha, scale 0 to 100, 0 is no effect, 100 is complete control

Structure (SMILES): CCn1nc(C(C)(C)C)cc1C(=O)Nc1cc(C(N)=O)ccc1F [Compound 271]
- Foxtail, Giant plant response rating [1, 25]: 10
- Plant response rating, Foxtail, Giant [1, 26]: 20
- Foxtail, Giant plant response rating [1, 27]: 70
- Foxtail, Giant plant response rating [1, 28]: 0
- Pigweed plant response rating (0 to 100 scale) [2, 29]: 0
- Plant response rating, Pigweed [2, 30]: 20
- Pigweed plant response rating [2, 31]: 50
- Pigweed plant response rating [2, 32]: 80
- Oat, Wild plant response rating [3, 31]: 20
- Oat, Wild plant response rating [3, 32]: 30
- Cocklebur plant response rating (0 to 100 scale) [4, 29]: 0
- Plant response rating, Cocklebur [4, 30]: 0
- Cocklebur plant response rating [4, 31]: 0
- Cocklebur plant response rating [4, 32]: 0
- Sedge, Umbrella plant response rating [5]: 40
- Foxtail, Giant plant response rating (0 to 100 scale) [6, 29]: 0
- Plant response rating, Foxtail, Giant [6, 30]: 0
- Foxtail, Giant plant response rating [6, 31]: 0
- Foxtail, Giant plant response rating [6, 32]: 0
- Barnyardgrass plant response rating (0 to 100 scale) [7, 29]: 0
- Plant response rating, Barnyardgrass [7, 30]: 0
- Barnyardgrass plant response rating [7, 31]: 0
- Barnyardgrass plant response rating [7, 32]: 0
- Rice plant response rating (0 to 100 scale) ([8]; 125 g ai/ha): 0
- Plant response rating, Rice ([8]; 500 g ai/ha, visual rating): 0
- Crabgrass, Large plant response rating [9, 25]: 10
- Plant response rating, Crabgrass, Large [9, 26]: 10
- Crabgrass, Large plant response rating [9, 27]: 15
- Crabgrass, Large plant response rating [9, 28]: 0
- Blackgrass plant response rating [10, 31]: 10
- Blackgrass plant response rating [10, 32]: 20
- Velvetleaf plant response rating [11, 25]: 10
- Plant response rating, Velvetleaf [11, 26]: 40
- Velvetleaf plant response rating [11, 27]: 5
- Velvetleaf plant response rating [11, 28]: 0
- Morningglory plant response rating [12, 25]: 10
- Plant response rating, Morningglory [12, 26]: 30
- Morningglory plant response rating [12, 27]: 0
- Morningglory plant response rating [12, 28]: 0
- Rice plant response rating [13]: 20
- Corn plant response rating (0 to 100 scale) [14, 29]: 0
- Plant response rating, Corn [14, 30]: 10
- Corn plant response rating [14, 31]: 0
- Corn plant response rating [14, 32]: 20
- Surinam Grass plant response rating (0 to 100 scale) [15, 29]: 0
- Plant response rating, Surinam Grass [15, 30]: 0
- Surinam Grass plant response rating [15, 31]: 0
- Surinam Grass plant response rating [15, 32]: 0
- Barnyardgrass plant response rating [16, 25]: 10
- Plant response rating, Barnyardgrass [16, 26]: 30
- Barnyardgrass plant response rating [16, 27]: 75
- Barnyardgrass plant response rating [16, 28]: 5
- Velvetleaf plant response rating (0 to 100 scale) [17, 29]: 0
- Plant response rating, Velvetleaf [17, 30]: 0
- Velvetleaf plant response rating [17, 31]: 0
- Velvetleaf plant response rating [17, 32]: 0
- Pigweed plant response rating [18, 25]: 45
- Plant response rating, Pigweed [18, 26]: 90
- Pigweed plant response rating [18, 27]: 60
- Pigweed plant response rating [18, 28]: 60
- Barnyardgrass plant response rating [19]: 0
- Crabgrass, Large plant response rating (0 to 100 scale) [20, 29]: 0
- Plant response rating, Crabgrass, Large [20, 30]: 0
- Crabgrass, Large plant response rating [20, 31]: 0
- Crabgrass, Large plant response rating [20, 32]: 0
- Lambsquarters plant response rating (0 to 100 scale) [21, 29]: 0
- Plant response rating, Lambsquarters [21, 30]: 60
- Lambsquarters plant response rating [21, 31]: 10
- Lambsquarters plant response rating [21, 32]: 60
- Morningglory plant response rating (0 to 100 scale) [22, 29]: 0
- Plant response rating, Morningglory [22, 30]: 0
- Morningglory plant response rating [22, 31]: 0
- Morningglory plant response rating [22, 32]: 0
- Ducksalad plant response rating [23]: 40
- Wheat plant response rating [24, 31]: 30
- Wheat plant response rating [24, 32]: 30
